Test results published in PubChem BioAssay AID2060513 (Molecular Pharmacology Branch, DTP, NCI, 2025).

Test system: 299254-011-R-J1-PDC complex spheroids viability
Experiment: Anticancer human tumor 299254-011-R-J1-PDC patient-derived melanoma cell line growth inhibition [GQUAD]
Settings: for IC50: curve of first compound; for viability, T/C: stronger effect = lower value
How it was run: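 Viability of tumor cells grown as complex spheroids with endothelial and stromal cells, exposed to drug combinations. Top concentration at or near clinical Cmax (else 10 microM), diluted in half-log increments.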

[1] = second compound 0.0316 µM, first compound 0.000999 µM
[2] = second compound 0.0316 µM, first compound 0.00316 µM
[3] = second compound 0.0316 µM, first compound 0.00999 µM
[4] = second compound 0.0316 µM, first compound 0.0316 µM
[5] = second compound 0.0316 µM, first compound 0.0999 µM
[6] = second compound 0.0316 µM, first compound 0.316 µM
[7] = second compound 0.1 µM, first compound 0.000999 µM
[8] = second compound 0.1 µM, first compound 0.00316 µM
[9] = second compound 0.1 µM, first compound 0.00999 µM
[10] = second compound 0.1 µM, first compound 0.0316 µM
[11] = second compound 0.1 µM, first compound 0.0999 µM
[12] = second compound 0.1 µM, first compound 0.316 µM
[13] = second compound 0.316 µM, first compound 0.000999 µM
[14] = second compound 0.316 µM, first compound 0.00316 µM
[15] = second compound 0.316 µM, first compound 0.00999 µM
[16] = second compound 0.316 µM, first compound 0.0316 µM
[17] = second compound 0.316 µM, first compound 0.0999 µM
[18] = second compound 0.316 µM, first compound 0.316 µM
[19] = second compound 1 µM, first compound 0.000999 µM
[20] = second compound 1 µM, first compound 0.00316 µM
[21] = second compound 1 µM, first compound 0.00999 µM
[22] = second compound 1 µM, first compound 0.0316 µM
[23] = second compound 1 µM, first compound 0.0999 µM
[24] = second compound 1 µM, first compound 0.316 µM
[25] = second compound 3.16 µM, first compound 0.000999 µM
[26] = second compound 3.16 µM, first compound 0.00316 µM
[27] = second compound 3.16 µM, first compound 0.00999 µM
[28] = second compound 3.16 µM, first compound 0.0316 µM
[29] = second compound 3.16 µM, first compound 0.0999 µM
[30] = second compound 3.16 µM, first compound 0.316 µM
[31] = second compound 10 µM, first compound 0.000999 µM
[32] = second compound 10 µM, first compound 0.00316 µM
[33] = second compound 10 µM, first compound 0.00999 µM
[34] = second compound 10 µM, first compound 0.0316 µM
[35] = second compound 10 µM, first compound 0.0999 µM
[36] = second compound 10 µM, first compound 0.316 µM
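Further: spheroids exposed to the agents for seven days before readout.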
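Wherever viability, T/C is given: percent viability relative to DMSO vehicle control wells = 100%.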

Compound: CC[C@@]1(O)C(=O)OCc2c1cc1n(c2=O)Cc2cc3c(CN(C)C)c(O)ccc3nc2-1 + CN(C)c1ccc(Nc2c3ccc(NC(=O)CCN4CCCC4)cc3nc3cc(NC(=O)CCN4CCCC4)ccc23)cc1
- IC50 (second compound 0.0316 µM): > 316 nM
- IC50 (second compound 0.1 µM): > 316 nM
- IC50 (second compound 0.316 µM): > 316 nM
- IC50 (second compound 1 µM): > 316 nM
- IC50 (second compound 3.16 µM): > 316 nM
- IC50 (second compound 10 µM): > 316 nM
- viability, T/C [1]: 99.2%
- viability, T/C [2]: 105%
- viability, T/C [3]: 126%
- viability, T/C [4]: 107%
- viability, T/C [5]: 112%
- viability, T/C [6]: 90.4%
- viability, T/C [7]: 120%
- viability, T/C [8]: 93.2%
- viability, T/C [9]: 98.7%
- viability, T/C [10]: 101%
- viability, T/C [11]: 84.5%
- viability, T/C [12]: 90.1%
- viability, T/C [13]: 108%
- viability, T/C [14]: 120%
- viability, T/C [15]: 108%
- viability, T/C [16]: 90.1%
- viability, T/C [17]: 85.8%
- viability, T/C [18]: 101%
- viability, T/C [19]: 106%
- viability, T/C [20]: 105%
- viability, T/C [21]: 115%
- viability, T/C [22]: 114%
- viability, T/C [23]: 97.6%
- viability, T/C [24]: 81.8%
- viability, T/C [25]: 103%
- viability, T/C [26]: 97%
- viability, T/C [27]: 122%
- viability, T/C [28]: 125%
- viability, T/C [29]: 124%
- viability, T/C [30]: 95.9%
- viability, T/C [31]: 112%
- viability, T/C [32]: 89.3%
- viability, T/C [33]: 110%
- viability, T/C [34]: 97.1%
- viability, T/C [35]: 91.6%
- viability, T/C [36]: 90.1%

Compound: CC(C)n1c(=O)n(C)c2cnc3cc(F)c(-c4ccc(OCCCN5CCCCC5)nc4)cc3c21 + CN(C)c1ccc(Nc2c3ccc(NC(=O)CCN4CCCC4)cc3nc3cc(NC(=O)CCN4CCCC4)ccc23)cc1
- IC50 (second compound 0.0316 µM): 9230 nM
- IC50 (second compound 0.1 µM): 8050 nM
- IC50 (second compound 0.316 µM): 8130 nM
- IC50 (second compound 1 µM): 7220 nM
- IC50 (second compound 3.16 µM): 5700 nM
- IC50 (second compound 10 µM): 2130 nM
- viability, T/C [4]: 102%
- viability, T/C (second compound 0.0316 µM, first compound 0.1 µM): 108%
- viability, T/C [6]: 91.2%
- viability, T/C (second compound 0.0316 µM, first compound 1 µM): 76.3%
- viability, T/C (second compound 0.0316 µM, first compound 3.16 µM): 94%
- viability, T/C (second compound 0.0316 µM, first compound 10 µM): 46.7%
- viability, T/C [10]: 93.4%
- viability, T/C (second compound 0.1 µM, first compound 0.1 µM): 79.6%
- viability, T/C [12]: 106%
- viability, T/C (second compound 0.1 µM, first compound 1 µM): 80.7%
- viability, T/C (second compound 0.1 µM, first compound 3.16 µM): 81.3%
- viability, T/C (second compound 0.1 µM, first compound 10 µM): 42.7%
- viability, T/C [16]: 86.4%
- viability, T/C (second compound 0.316 µM, first compound 0.1 µM): 102%
- viability, T/C [18]: 87%
- viability, T/C (second compound 0.316 µM, first compound 1 µM): 93.2%
- viability, T/C (second compound 0.316 µM, first compound 3.16 µM): 85.7%
- viability, T/C (second compound 0.316 µM, first compound 10 µM): 42.1%
- viability, T/C [22]: 91.6%
- viability, T/C (second compound 1 µM, first compound 0.1 µM): 87.1%
- viability, T/C [24]: 79.4%
- viability, T/C (second compound 1 µM, first compound 1 µM): 77.6%
- viability, T/C (second compound 1 µM, first compound 3.16 µM): 85.9%
- viability, T/C (second compound 1 µM, first compound 10 µM): 36.5%
- viability, T/C [28]: 93.9%
- viability, T/C (second compound 3.16 µM, first compound 0.1 µM): 81.8%
- viability, T/C [30]: 86.2%
- viability, T/C (second compound 3.16 µM, first compound 1 µM): 77.2%
- viability, T/C (second compound 3.16 µM, first compound 3.16 µM): 61.9%
- viability, T/C (second compound 3.16 µM, first compound 10 µM): 38.1%
- viability, T/C [34]: 83.2%
- viability, T/C (second compound 10 µM, first compound 0.1 µM): 79.9%
- viability, T/C [36]: 77%
- viability, T/C (second compound 10 µM, first compound 1 µM): 64.5%
- viability, T/C (second compound 10 µM, first compound 3.16 µM): 42.4%
- viability, T/C (second compound 10 µM, first compound 10 µM): 28.9%

Compound: CC[C@@]1(O)C(=O)OCc2c1cc1n(c2=O)Cc2cc3c(CN(C)C)c(O)ccc3nc2-1 + Cc1[nH]c2ccc(F)cc2c1-c1nc2c3cccnc3c3ncccc3c2[nH]1
- IC50 (second compound 0.0316 µM): > 316 nM
- IC50 (second compound 0.1 µM): > 316 nM
- IC50 (second compound 0.316 µM): > 316 nM
- IC50 (second compound 1 µM): > 316 nM
- IC50 (second compound 3.16 µM): > 316 nM
- IC50 (second compound 10 µM): > 316 nM
- viability, T/C [1]: 119%
- viability, T/C [2]: 92.6%
- viability, T/C [3]: 102%
- viability, T/C [4]: 85.8%
- viability, T/C [5]: 86%
- viability, T/C [6]: 79.4%
- viability, T/C [7]: 115%
- viability, T/C [8]: 105%
- viability, T/C [9]: 112%
- viability, T/C [10]: 78.2%
- viability, T/C [11]: 109%
- viability, T/C [12]: 74.8%
- viability, T/C [13]: 86.2%
- viability, T/C [14]: 88.3%
- viability, T/C [15]: 89.2%
- viability, T/C [16]: 106%
- viability, T/C [17]: 93.2%
- viability, T/C [18]: 77.7%
- viability, T/C [19]: 97%
- viability, T/C [20]: 103%
- viability, T/C [21]: 98.2%
- viability, T/C [22]: 101%
- viability, T/C [23]: 87.2%
- viability, T/C [24]: 86.9%
- viability, T/C [25]: 87.2%
- viability, T/C [26]: 116%
- viability, T/C [27]: 95%
- viability, T/C [28]: 111%
- viability, T/C [29]: 96.8%
- viability, T/C [30]: 101%
- viability, T/C [31]: 95%
- viability, T/C [32]: 97.8%
- viability, T/C [33]: 85.1%
- viability, T/C [34]: 85.3%
- viability, T/C [35]: 116%
- viability, T/C [36]: 79.8%
